Source: BindingDB's records for doi:10.1021/acs.jmedchem.8b00082 (Abbvie, 2018)
pEC50: −log10 of the molar value.

Legend:
[1] = Inhibition of HCV genotype 1b Con1 NS5A expressed in HuH7 cell infected HCV genotype 2b assessed as decrease in viral replication after 3 days by luciferase reporter gene assay
[2] = Inhibition of NS5A in HuH7 cell infected HCV genotype 1b Con1 assessed as decrease in viral replication after 3 days by luciferase reporter gene assay
[3] = Inhibition of HCV genotype 1b Con1 NS5A expressed in HuH7 cell infected HCV genotype 4a assessed as decrease in viral replication after 3 days by luciferase reporter gene assay
[4] = Inhibition of NS5A in HuH7 cell infected HCV genotype 1a H77 assessed as decrease in viral replication after 3 days by luciferase reporter gene assay
[5] = Inhibition of NS5A in HuH7 cell infected HCV genotype 1b Con1 assessed as decrease in viral replication after 3 days in presence of 40% human plasma by luciferase reporter gene assay
[6] = Inhibition of HCV genotype 1b Con1 NS5A expressed in HuH7 cell infected HCV genotype 3a assessed as decrease in viral replication after 3 days by luciferase reporter gene assay
[7] = Inhibition of HCV genotype 1b Con1 NS5A expressed in HuH7 cell infected HCV genotype 2a assessed as decrease in viral replication after 3 days by luciferase reporter gene assay
[8] = Inhibition of NS5A in HuH7 cell infected HCV genotype 1a H77 assessed as decrease in viral replication after 3 days in presence of 40% human plasma by luciferase reporter gene assay

| SMILES | pEC50 [1] | pEC50 [2] | pEC50 [3] | pEC50 [4] | pEC50 [5] | pEC50 [6] | pEC50 [7] | pEC50 [8] |
| --- | --- | --- | --- | --- | --- | --- | --- | --- |
| COC(=O)N[C@H](C(=O)N1CCC[C@H]1c1nc2ccc([C@H]3CC[C@H](c4ccc5nc([C@@H]6CCCN6C(=O)[C@@H](NC(=O)OC)C(C)C)[nH]c5c4)N3c3ccc(C4CCCCC4)cc3)cc2[nH]1)C(C)C | 11.15 | 11.05 | 11.05 | 11.40 | 9.75 | 11.10 | 11.00 | 9.97 |
| COC(=O)N[C@H](C(=O)N1CCC[C@H]1c1nc2ccc([C@H]3CC[C@H](c4ccc5nc([C@@H]6CCCN6C(=O)[C@@H](NC(=O)OC)C(C)C)[nH]c5c4)N3c3ccc(N4CCOCC4)cc3)cc2[nH]1)C(C)C | 9.02 | 9.42 | 9.50 | 9.42 | 8.68 | 8.92 | 9.22 | 9.04 |
| COC(=O)N[C@H](C(=O)N1CCC[C@H]1c1nc2ccc([C@H]3CC[C@H](c4ccc5nc([C@@H]6CCCN6C(=O)[C@@H](NC(=O)OC)C(C)C)[nH]c5c4)N3c3ccc(C(C)(C)C)cc3)cc2[nH]1)C(C)C | 11.00 | 10.89 | 11.22 | 11.05 | 9.57 | 11.22 | 9.82 | 9.83 |
| COC(=O)N[C@H](C(=O)N1CCC[C@H]1C(=O)Nc1ccc([C@H]2CC[C@H](c3ccc(NC(=O)[C@@H]4CCCN4C(=O)[C@@H](NC(=O)OC)C(C)C)cc3)N2c2ccc(C(C)(C)C)cc2)cc1)C(C)C |  | 11.05 |  | 9.87 | 10.05 |  |  | 9.01 |
| COC(=O)N[C@H](C(=O)N1CCC[C@H]1c1nc2ccc([C@H]3CC[C@H](c4ccc5nc([C@@H]6CCCN6C(=O)[C@@H](NC(=O)OC)C(C)C)[nH]c5c4)N3c3ccc(N4CCCCC4)c(F)c3)cc2[nH]1)C(C)C | 10.52 | 10.54 | 10.77 | 10.74 | 9.42 | 10.36 | 10.32 | 9.70 |
| COC(=O)N[C@H](C(=O)N1CCC[C@H]1c1nc2ccc([C@H]3CC[C@H](c4ccc5nc([C@@H]6CCCN6C(=O)[C@@H](NC(=O)OC)C(C)C)[nH]c5c4)N3c3ccc(OC(F)(F)F)cc3)cc2[nH]1)C(C)C | 10.92 | 10.92 | 10.89 | 10.72 | 9.64 | 10.74 | 10.37 | 9.56 |
| COC(=O)N[C@H](C(=O)N1CCC[C@H]1c1nc2ccc([C@H]3CC[C@H](c4ccc5nc([C@@H]6CCCN6C(=O)[C@@H](NC(=O)OC)C(C)C)[nH]c5c4)N3c3ccc(Oc4ccccc4)cc3)cc2[nH]1)C(C)C | 11.10 | 10.70 | 11.30 | 10.92 | 9.55 | 10.96 | 10.92 | 9.81 |
| COC(=O)N[C@H](C(=O)N1CCC[C@H]1c1nc2ccc([C@H]3CC[C@H](c4ccc5nc([C@@H]6CCCN6C(=O)[C@@H](NC(=O)OC)C(C)C)[nH]c5c4)N3c3ccc(C4CC4)cc3)cc2[nH]1)C(C)C | 10.70 | 10.64 | 10.70 | 10.92 | 9.45 | 10.59 | 10.39 | 9.79 |
| COC(=O)N[C@H](C(=O)N1CCC[C@H]1c1nc2ccc([C@@H]3CC[C@@H](c4ccc5nc([C@@H]6CCCN6C(=O)[C@@H](NC(=O)OC)C(C)C)[nH]c5c4)N3c3ccc(C(C)(C)C)cc3)cc2[nH]1)C(C)C |  | 10.89 |  | 10.15 | 9.45 |  |  | 8.70 |
| COC(=O)N[C@H](C(=O)N1CCC[C@H]1c1nc2ccc([C@H]3CC[C@H](c4ccc5nc([C@@H]6CCCN6C(=O)[C@@H](NC(=O)OC)C(C)C)[nH]c5c4)N3c3ccc(N4CCOCC4)c(F)c3)cc2[nH]1)C(C)C | 9.64 | 9.71 | 9.77 | 9.72 | 9.04 | 9.45 | 9.51 | 9.32 |
